Results from the NIST ThermoML archive (doi:10.1021/je301301j).

Assay: xn = mol fraction of the nth substance listed
Settings: Liquid; for mass density: Vibrating tube method; for viscosity: Concentric cylinders viscometry

C=CCCCC [hex-1-ene] + CCCCO
Settings | mass density [kg/m3] | viscosity [mPa·s]
273.15 K, 100 kPa, x1 = 0.1001 | 808.1 | –
273.15 K, 100 kPa, x1 = 0.3999 | 764.1 | –
273.15 K, 100 kPa, x1 = 0.5018 | 751.4 | –
273.15 K, 100 kPa, x1 = 0.5997 | 739 | –
273.15 K, 100 kPa, x1 = 0.9 | 700.4 | –
273.15 K, 100 kPa, x1 = 1 | 691.5 | –
273.15 K, 1000 kPa, x1 = 0.1001 | 808.5 | –
273.15 K, 1000 kPa, x1 = 0.3999 | 764.6 | –
273.15 K, 1000 kPa, x1 = 0.5018 | 751.9 | –
273.15 K, 1000 kPa, x1 = 0.5997 | 739.5 | –
273.15 K, 1000 kPa, x1 = 0.9 | 701 | –
273.15 K, 1000 kPa, x1 = 1 | 692.1 | –
273.15 K, 2000 kPa, x1 = 0.1001 | 809.3 | –
273.15 K, 2000 kPa, x1 = 0.3999 | 765.4 | –
273.15 K, 2000 kPa, x1 = 0.5018 | 752.7 | –
273.15 K, 2000 kPa, x1 = 0.5997 | 740.4 | –
273.15 K, 2000 kPa, x1 = 0.9 | 701.9 | –
273.15 K, 2000 kPa, x1 = 1 | 693 | –
273.15 K, 5000 kPa, x1 = 0.1001 | 811.3 | –
273.15 K, 5000 kPa, x1 = 0.3999 | 767.7 | –
273.15 K, 5000 kPa, x1 = 0.5018 | 755.1 | –
273.15 K, 5000 kPa, x1 = 0.5997 | 742.8 | –
273.15 K, 5000 kPa, x1 = 0.9 | 704.6 | –
273.15 K, 5000 kPa, x1 = 1 | 695.8 | –
273.15 K, 10000 kPa, x1 = 0.1001 | 814.6 | –
273.15 K, 10000 kPa, x1 = 0.3999 | 771.4 | –
273.15 K, 10000 kPa, x1 = 0.5018 | 758.9 | –
273.15 K, 10000 kPa, x1 = 0.5997 | 746.7 | –
273.15 K, 10000 kPa, x1 = 0.9 | 708.8 | –
273.15 K, 10000 kPa, x1 = 1 | 700 | –
273.15 K, 15000 kPa, x1 = 0.1001 | 817.8 | –
273.15 K, 15000 kPa, x1 = 0.3999 | 774.9 | –
273.15 K, 15000 kPa, x1 = 0.5018 | 762.5 | –
273.15 K, 15000 kPa, x1 = 0.5997 | 750.4 | –
273.15 K, 15000 kPa, x1 = 0.9 | 712.8 | –
273.15 K, 15000 kPa, x1 = 1 | 704 | –
273.15 K, 20000 kPa, x1 = 0.1001 | 820.8 | –
273.15 K, 20000 kPa, x1 = 0.3999 | 778.2 | –
273.15 K, 20000 kPa, x1 = 0.5018 | 766 | –
273.15 K, 20000 kPa, x1 = 0.5997 | 754 | –
273.15 K, 20000 kPa, x1 = 0.9 | 716.5 | –
273.15 K, 20000 kPa, x1 = 1 | 707.8 | –
273.15 K, 30000 kPa, x1 = 0.1001 | 826.5 | –
273.15 K, 30000 kPa, x1 = 0.3999 | 784.4 | –
273.15 K, 30000 kPa, x1 = 0.5018 | 772.4 | –
273.15 K, 30000 kPa, x1 = 0.5997 | 760.6 | –
273.15 K, 30000 kPa, x1 = 0.9 | 723.6 | –
273.15 K, 30000 kPa, x1 = 1 | 715 | –
273.15 K, 40000 kPa, x1 = 0.1001 | 831.9 | –
273.15 K, 40000 kPa, x1 = 0.3999 | 790.2 | –
273.15 K, 40000 kPa, x1 = 0.5018 | 778.4 | –
273.15 K, 40000 kPa, x1 = 0.5997 | 766.8 | –
273.15 K, 40000 kPa, x1 = 0.9 | 730.1 | –
273.15 K, 40000 kPa, x1 = 1 | 721.6 | –
273.15 K, 50000 kPa, x1 = 0.1001 | 837 | –
273.15 K, 50000 kPa, x1 = 0.3999 | 795.7 | –
273.15 K, 50000 kPa, x1 = 0.5018 | 783.9 | –
273.15 K, 50000 kPa, x1 = 0.5997 | 772.3 | –
273.15 K, 50000 kPa, x1 = 0.9 | 736.1 | –
273.15 K, 50000 kPa, x1 = 1 | 727.6 | –
273.15 K, 60000 kPa, x1 = 1 | 733.2 | –
273.15 K, 70000 kPa, x1 = 1 | 738.7 | –
293.15 K, 100 kPa, x1 = 0.1001 | 792.4 | –
293.15 K, 100 kPa, x1 = 0.3999 | 747 | –
293.15 K, 100 kPa, x1 = 0.5018 | 734 | –
293.15 K, 100 kPa, x1 = 0.5997 | 721.2 | –
293.15 K, 100 kPa, x1 = 0.9 | 681.8 | –
293.15 K, 100 kPa, x1 = 1 | 672.8 | –
293.15 K, 100 kPa, x2 = 0 | – | 0.28
293.15 K, 100 kPa, x2 = 0.1001 | – | 0.316
293.15 K, 100 kPa, x2 = 0.2 | – | 0.355
293.15 K, 100 kPa, x2 = 0.3002 | – | 0.422
293.15 K, 100 kPa, x2 = 0.3999 | – | 0.522
293.15 K, 100 kPa, x2 = 0.5018 | – | 0.669
293.15 K, 100 kPa, x2 = 0.5997 | – | 0.86
293.15 K, 100 kPa, x2 = 0.7002 | – | 1.159
293.15 K, 100 kPa, x2 = 0.7999 | – | 1.558
293.15 K, 100 kPa, x2 = 0.9 | – | 2.125
293.15 K, 1000 kPa, x1 = 0.1001 | 793.1 | –
293.15 K, 1000 kPa, x1 = 0.3999 | 747.7 | –
293.15 K, 1000 kPa, x1 = 0.5018 | 734.8 | –
293.15 K, 1000 kPa, x1 = 0.5997 | 722 | –
293.15 K, 1000 kPa, x1 = 0.9 | 682.7 | –
293.15 K, 1000 kPa, x1 = 1 | 673.8 | –
293.15 K, 2000 kPa, x1 = 0.1001 | 793.8 | –
293.15 K, 2000 kPa, x1 = 0.3999 | 748.6 | –
293.15 K, 2000 kPa, x1 = 0.5018 | 735.7 | –
293.15 K, 2000 kPa, x1 = 0.5997 | 723 | –
293.15 K, 2000 kPa, x1 = 0.9 | 683.8 | –
293.15 K, 2000 kPa, x1 = 1 | 674.9 | –
293.15 K, 5000 kPa, x1 = 0.1001 | 796.2 | –
293.15 K, 5000 kPa, x1 = 0.3999 | 751.2 | –
293.15 K, 5000 kPa, x1 = 0.5018 | 738.4 | –
293.15 K, 5000 kPa, x1 = 0.5997 | 725.8 | –
293.15 K, 5000 kPa, x1 = 0.9 | 686.9 | –
293.15 K, 5000 kPa, x1 = 1 | 678 | –
293.15 K, 10000 kPa, x1 = 0.1001 | 799.7 | –
293.15 K, 10000 kPa, x1 = 0.3999 | 755.3 | –
293.15 K, 10000 kPa, x1 = 0.5018 | 742.7 | –
293.15 K, 10000 kPa, x1 = 0.5997 | 730.2 | –
293.15 K, 10000 kPa, x1 = 0.9 | 691.7 | –
293.15 K, 10000 kPa, x1 = 1 | 682.9 | –
293.15 K, 15000 kPa, x1 = 0.1001 | 803.2 | –
293.15 K, 15000 kPa, x1 = 0.3999 | 759.2 | –
293.15 K, 15000 kPa, x1 = 0.5018 | 746.7 | –
293.15 K, 15000 kPa, x1 = 0.5997 | 734.4 | –
293.15 K, 15000 kPa, x1 = 0.9 | 696.2 | –
293.15 K, 15000 kPa, x1 = 1 | 687.5 | –
293.15 K, 20000 kPa, x1 = 0.1001 | 806.5 | –
293.15 K, 20000 kPa, x1 = 0.3999 | 762.9 | –
293.15 K, 20000 kPa, x1 = 0.5018 | 750.5 | –
293.15 K, 20000 kPa, x1 = 0.5997 | 738.3 | –
293.15 K, 20000 kPa, x1 = 0.9 | 700.4 | –
293.15 K, 20000 kPa, x1 = 1 | 691.8 | –
293.15 K, 30000 kPa, x1 = 0.1001 | 812.8 | –
293.15 K, 30000 kPa, x1 = 0.3999 | 769.9 | –
293.15 K, 30000 kPa, x1 = 0.5018 | 757.7 | –
293.15 K, 30000 kPa, x1 = 0.5997 | 745.7 | –
293.15 K, 30000 kPa, x1 = 0.9 | 708.3 | –
293.15 K, 30000 kPa, x1 = 1 | 699.8 | –
293.15 K, 40000 kPa, x1 = 0.1001 | 818.6 | –
293.15 K, 40000 kPa, x1 = 0.3999 | 776.3 | –
293.15 K, 40000 kPa, x1 = 0.5018 | 764.2 | –
293.15 K, 40000 kPa, x1 = 0.5997 | 752.4 | –
293.15 K, 40000 kPa, x1 = 0.9 | 715.5 | –
293.15 K, 40000 kPa, x1 = 1 | 707 | –
293.15 K, 50000 kPa, x1 = 0.1001 | 824.1 | –
293.15 K, 50000 kPa, x1 = 0.3999 | 782.2 | –
293.15 K, 50000 kPa, x1 = 0.5018 | 770.2 | –
293.15 K, 50000 kPa, x1 = 0.5997 | 758.6 | –
293.15 K, 50000 kPa, x1 = 0.9 | 722.1 | –
293.15 K, 50000 kPa, x1 = 1 | 713.7 | –
293.15 K, 60000 kPa, x1 = 1 | 719.9 | –
293.15 K, 70000 kPa, x1 = 1 | 725.8 | –
303.15 K, 100 kPa, x2 = 0 | – | 0.257
303.15 K, 100 kPa, x2 = 0.1001 | – | 0.283
303.15 K, 100 kPa, x2 = 0.2 | – | 0.316
303.15 K, 100 kPa, x2 = 0.3002 | – | 0.369
303.15 K, 100 kPa, x2 = 0.3999 | – | 0.448
